Tested on: strain DSM 21069 (isolate MP28-13)
Test: Antibiotic resistance characteristics of strain DSM 21069
Assay type: cell-based, Streptomyces

Row | Compound | Antibiotic resistance (antibiotic at 5 μg/ml) | Antibiotic resistance (antibiotic at 10 μg/ml) | Antibiotic resistance (antibiotic at 20 μg/ml) | Antibiotic resistance (antibiotic at 50 μg/ml)
1 | CN[C@@H]1[C@@H](O[C@H]2O[C@H](CO)[C@@H](N)[C@H](O)[C@H]2O)OC2C[C@@H](N)[C@@H](O[C@H]3[C@H](O)[C@@H](O)[C@H](N)C[C@@H]3N)OC2[C@@H]1O (some centres unmarked) [Apramycin] | sensitive | sensitive | sensitive | sensitive
2 | CO[C@H]1/C=C/O[C@@]2(C)Oc3c(C)c(O)c4c(O)c(cc(O)c4c3C2=O)NC(=O)/C(C)=C\C=C\[C@H](C)[C@H](O)[C@@H](C)[C@@H](O)[C@@H](C)[C@H](OC(C)=O)[C@@H]1C [Rifamycin] | resistant | resistant | resistant | sensitive
3 | [H]/N=C(/N)N[C@H]1[C@H](O)[C@@H](O)[C@H](O[C@@H]2O[C@@H](C)[C@](O)(C=O)[C@H]2O[C@@H]2O[C@@H](CO)[C@H](O)[C@@H](O)[C@@H]2NC)[C@@H](N/C(N)=N\[H])[C@@H]1O [Streptomycin] | resistant | resistant | resistant | resistant
4 | C=C(NC(=O)C(=C)NC(=O)c1csc(C2=N[C@@H]3c4csc(n4)[C@H]4NC(=O)c5csc(n5)[C@H]([C@](C)(O)[C@@H](C)O)NC(=O)[C@H]5CSC(=N5)/C(=C/C)NC(=O)[C@H]([C@@H](C)O)NC(=O)c5csc(n5)[C@]3(CC2)NC(=O)[C@H](C)NC(=O)C(=C)NC(=O)[C@H](C)NC(=O)[C@H]([C@@H](C)CC)N[C@@H]2C=Cc3c([C@H](C)O)cc(nc3[C@H]2O)C(=O)O[C@@H]4C)n1)C(N)=O [Thiostrepton] | sensitive | sensitive | sensitive | sensitive
5 | Neomycin | sensitive | sensitive | sensitive | sensitive

Reference: patent US9217150B2, “NRPS-PKS gene cluster and its manipulation and utility” (SINTEF TTO AS, priority 2008, dated 2015)
